Data as given in patent US20140155406A1, “4-IMIDAZOPYRIDAZIN-1-YL-BENZAMIDES AND 4-IMIDAZOTRIAZIN-1-YL-BENZAMIDES BTK INHIBITORS” (priority 2011, published 2014).

How the values were obtained:
Assay type in all cases: biochemical
[1] = target: T1, Lck enzyme (Homo sapiens, UniProt P06239); experiment: Lck enzyme activity, IMAP fluorescence polarization assay; conditions: 60 min pre-incubation, 6 μM ATP (Km)
T1 construct: purchased Millipore 14-442
Experimental: Lck enzyme activity is measured using the IMAP (immobilized metal ion affinity-based fluorescence polarization) assay as outlined below.
Lck enzyme (Millipore catalog#14-442), is diluted to 0.4 U/mL in KR buffer (10 mM Tris-HCl, 10 mM MgCl2, 0.01% Tween-20, 0.05% NaN3, 1 mM DTT, 2 mM MnCl2, pH 7.2). Serial dilution log 10 from 2 mM to 63.2 nM of test compounds are made in 100% DMSO. The dilutions in DMSO are then diluted 50-fold in KR-buffer of which 5 μl is used in the assay, leading to a final compound concentration range in the assay from 10 μM to 0.316 nM. 5 μL/well of test compound in KR buffer (final DMSO concentration in the assay is 1%) is mixed with 5 μl/well of 0.4 U/mL Lck enzyme (final concentration in the assay is 0.1 U/mL). Test compounds and Lck enzyme are pre-incubated 60 minutes at room temperature, before adding 5 μL/well of 400 nM Fluorescin labeled substrate peptide (p34cdc2 substrate peptide, e.g. #R7157/#R7172, Molecular Devices) in KR-buffer. Final peptide substrate concentration in assay is 100 nM. The kinase assay is started by adding 5 μL/well of 24 μM ATP in KR-buffer (final ATP concentration is 6 μM ATP, Km ATP in Lck IMAP assay). Following incubation for 2 h at room temperature the enzyme reaction is stopped by adding 40 μL/well IMAP Progressive Binding Solution (according to suppliers (Molecular Devices) protocol using 75% 1× buffer A and 25% 1× buffer B with 1:600 Progressive Binding Solution). After 60 min incubation at room temperature in the dark the FP signal is read. Fluorescence at 535 nm is measured using parallel and perpendicular filters to determine differences in rotation due to binding of the phosphorylated substrate peptide to the beads. Values are calculated as percentage of the difference in readout (ΔmPi) of the controls with and without ATP. EC50 values are determined by curve fitting of the experimental results using Activity Base.

[2] = target: T2, Src enzyme (Homo sapiens, UniProt P12931); experiment: Src enzyme activity, IMAP fluorescence polarization assay; conditions: 60 min pre-incubation, 4 μM ATP (Km)
T2 construct: purchased Millipore 14-326
Experimental: Src enzyme activity is measured using the IMAP (immobilized metal ion affinity-based fluorescence polarization) assay as outlined below.
Src enzyme (Millipore catalog#14-326), is diluted to 0.8 U/mL in KR buffer (10 mM Tris-HCl, 10 mM MgCl2, 0.01% Tween-20, 0.05% NaN3, 1 mM DTT, 2 mM MnCl2, pH 7.2).
Serial dilution log 10 from 2 mM to 63.2 nM of test compounds are made in 100% DMSO. The dilutions in DMSO are then diluted 50-fold in KR-buffer of which 5 μl is used in the assay, leading to a final compound concentration range in the assay from 10 μM to 0.316 nM. 5 μL/well of test compound in KR buffer (final DMSO concentration in the assay is 1%) is mixed with 5 μl/well of 0.8 U/mL Src enzyme (final concentration in the assay is 0.2 U/mL). Test compounds and Src enzyme are pre-incubated 60 minutes at room temperature, before adding 5 μL/well of 400 nM Fluorescin labeled substrate peptide (p34cdc2 substrate peptide, e.g. #R7157/#R7172, Molecular Devices) in KR-buffer. Final peptide substrate concentration in assay is 100 nM. The kinase assay is started by adding 5 μL/well of 16 μM ATP in KR-buffer (final ATP concentration is 4 μM ATP, Km ATP in Src IMAP assay). Following incubation for 2 h at room temperature the enzyme reaction is stopped by adding 40 μL/well IMAP Progressive Binding Solution (according to suppliers (Molecular Devices) protocol using 75% 1× buffer A and 25% 1× buffer B with 1:600 Progressive Binding Solution). After 60 min incubation at room temperature in the dark the FP signal is read. Fluorescence at 535 nm is measured using parallel and perpendicular filters to determine differences in rotation due to binding of the phosphorylated substrate peptide to the beads. Values are calculated as percentage of the difference in readout (ΔmPi) of the controls with and without ATP. EC50 values are determined by curve fitting of the experimental results using Activity Base.

[3] = target: T3, Lyn enzyme (Homo sapiens, UniProt P07948); experiment: Lyn enzyme activity, IMAP fluorescence polarization assay; conditions: 60 min pre-incubation, 2 μM ATP (Km)
T3 construct: purchased Millipore 14-510
Experimental: Lyn enzyme activity is measured using the IMAP (immobilized metal ion affinity-based fluorescence polarization) assay as outlined below.
Lyn enzyme (Millipore catalog#14-510), is diluted to 250 mU/mL in KR buffer (10 mM Tris-HCl, 10 mM MgCl2, 0.01% Tween-20, 0.05% NaN3, 1 mM DTT, 2 mM MnCl2, pH 7.2). Serial dilution log 10 from 2 mM to 63.2 nM of test compounds are made in 100% DMSO. The dilutions in DMSO are then diluted 50-fold in KR-buffer of which 5 μl is used in the assay, leading to a final compound concentration range in the assay from 10 μM to 0.316 nM. 5 μL/well of test compound in KR buffer (final DMSO concentration in the assay is 1%) is mixed with 5 μl/well of 250 mU/mL Lyn enzyme (final concentration in the assay is 62.5 mU/mL). Test compounds and Lyn enzyme are pre-incubated 60 minutes at room temperature, before adding 5 μL/well of 400 nM Fluorescin labeled substrate peptide (Blk/Lyntide substrate, e.g. #R7188/#R7233, Molecular Devices) in KR-buffer. Final peptide substrate concentration in assay is 100 nM. The kinase assay is started by adding 5 μL/well of 8 μM ATP in KR-buffer (final ATP concentration is 2 μM ATP, Km ATP in Lyn IMAP assay). Following incubation for 2 h at room temperature the enzyme reaction is stopped by adding 40 μL/well IMAP Progressive Binding Solution (according to suppliers (Molecular Devices) protocol using 75% 1× buffer A and 25% 1× buffer B with 1:600 Progressive Binding Solution). After 60 min incubation at room temperature in the dark the FP signal is read. Fluorescence at 535 nm is measured using parallel and perpendicular filters to determine differences in rotation due to binding of the phosphorylated substrate peptide to the beads. Values are calculated as percentage of the difference in readout (ΔmPi) of the controls with and without ATP. EC50 values are determined by curve fitting of the experimental results using Activity Base.

Measured: EC50

T1 sequence (P06239 whole entry): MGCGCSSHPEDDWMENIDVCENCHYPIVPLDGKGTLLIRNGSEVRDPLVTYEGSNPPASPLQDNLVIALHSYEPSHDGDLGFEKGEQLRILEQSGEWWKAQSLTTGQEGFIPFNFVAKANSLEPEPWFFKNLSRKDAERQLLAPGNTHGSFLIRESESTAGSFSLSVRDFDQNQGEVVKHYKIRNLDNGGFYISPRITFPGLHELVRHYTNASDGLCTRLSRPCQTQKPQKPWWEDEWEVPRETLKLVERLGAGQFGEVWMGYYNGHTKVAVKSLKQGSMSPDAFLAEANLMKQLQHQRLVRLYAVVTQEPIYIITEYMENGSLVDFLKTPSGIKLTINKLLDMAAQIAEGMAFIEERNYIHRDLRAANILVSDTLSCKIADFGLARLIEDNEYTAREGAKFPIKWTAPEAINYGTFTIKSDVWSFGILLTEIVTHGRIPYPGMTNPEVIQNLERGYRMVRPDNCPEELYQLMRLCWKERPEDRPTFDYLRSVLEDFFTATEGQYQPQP
T3 sequence (P07948 whole entry): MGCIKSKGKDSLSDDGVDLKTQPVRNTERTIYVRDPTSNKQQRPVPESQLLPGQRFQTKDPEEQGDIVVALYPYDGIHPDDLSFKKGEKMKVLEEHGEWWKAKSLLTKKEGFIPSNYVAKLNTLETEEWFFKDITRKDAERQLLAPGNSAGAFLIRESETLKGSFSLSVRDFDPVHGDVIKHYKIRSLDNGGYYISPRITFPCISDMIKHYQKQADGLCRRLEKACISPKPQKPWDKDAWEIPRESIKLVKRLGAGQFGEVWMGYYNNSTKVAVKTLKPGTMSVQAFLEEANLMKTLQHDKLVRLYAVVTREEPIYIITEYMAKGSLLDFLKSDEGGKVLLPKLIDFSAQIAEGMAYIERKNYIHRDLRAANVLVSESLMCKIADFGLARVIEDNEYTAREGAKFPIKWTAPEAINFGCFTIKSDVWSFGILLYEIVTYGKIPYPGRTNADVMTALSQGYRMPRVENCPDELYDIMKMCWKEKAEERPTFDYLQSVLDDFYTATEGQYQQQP
T2 sequence (P12931 whole entry): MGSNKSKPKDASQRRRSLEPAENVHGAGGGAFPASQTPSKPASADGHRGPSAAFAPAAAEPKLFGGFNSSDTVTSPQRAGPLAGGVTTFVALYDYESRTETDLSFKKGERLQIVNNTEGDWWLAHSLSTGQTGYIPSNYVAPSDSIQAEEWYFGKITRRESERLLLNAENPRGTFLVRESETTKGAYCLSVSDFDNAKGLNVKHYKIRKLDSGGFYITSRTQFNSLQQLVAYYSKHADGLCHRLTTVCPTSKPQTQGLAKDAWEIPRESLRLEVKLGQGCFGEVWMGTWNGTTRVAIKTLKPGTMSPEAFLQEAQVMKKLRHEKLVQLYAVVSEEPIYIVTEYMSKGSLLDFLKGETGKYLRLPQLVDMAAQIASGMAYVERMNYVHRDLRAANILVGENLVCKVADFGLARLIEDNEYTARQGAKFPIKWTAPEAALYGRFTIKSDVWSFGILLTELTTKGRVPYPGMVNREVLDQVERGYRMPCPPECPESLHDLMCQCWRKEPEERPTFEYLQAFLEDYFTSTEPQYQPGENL

C=CC(=O)N1CCC[C@H]1c1nc(-c2ccc(C(=O)Nc3cc(CCC)ccn3)cc2)c2c(C)nccn12 [Example 9, (S)-4-(3-(1-Acryloylpyrrolidin-2-yl)-8-methylimidazo[1,5-a]pyrazin-1-yl)-N-(4-propylpyridin-2-yl)benzamide]
≥ 1000 nM: all assays above

C=CS(=O)(=O)N1CCCC[C@H]1c1nc(-c2ccc(C(=O)Nc3cc(CCC)ccn3)cc2)c2c(C)nccn12 [Example 4, (S)-4-(8-Methyl-3-(1-(vinylsulfonyl)piperidin-2-yl)imidazo[1,5-a]pyrazin-1-yl)-N-(4-propylpyridin-2-yl)benzamide]
≥ 1000 nM: all assays above

C=CC(=O)N1CCCC[C@H]1c1nc(-c2ccc(C(=O)Nc3cc(C(F)(F)F)ccn3)cc2)c2c(C)nccn12 [Example 27, (S)-4-(3-(1-acryloylpiperidin-2-yl)-8-methylimidazo[1,5-a]pyrazin-1-yl)-N-(4-(trifluoromethyl)pyridin-2-yl)benzamide]
≥ 1000 nM: all assays above

C=CC(=O)N1CCCC[C@H]1c1nc(-c2ccc(C(=O)Nc3cc(CCC)ccn3)cc2)c2c(C)nccn12 [Example 2, (S)-4-(3-(1-Acryloylpiperidin-2-yl)-8-methylimidazo[1,5-a]pyrazin-1-yl)-N-(4-propylpyridin-2-yl)benzamide]
≥ 1000 nM: all assays above

Cc1nccn2c([C@@H]3CCCCN3C(=O)/C=C/CN(C)C)nc(-c3ccc(C(=O)Nc4cc(C(F)(F)F)ccn4)cc3)c12 [Example 37, (S,E)-4-(3-(1-(4-(dimethylamino)but-2-enoyl)piperidin-2-yl)-8-methylimidazo[1,5-a]pyrazin-1-yl)-N-(4-(trifluoromethyl)pyridin-2-yl)benzamide]
≥ 1000 nM: all assays above

CCCc1ccnc(NC(=O)c2ccc(-c3nc([C@@H]4CCCCN4C(=O)/C=C/CN4CCCC4)n4ccnc(C)c34)cc2)c1 [Example 35, (S,E)-4-(8-methyl-3-(1-(4-(pyrrolidin-1-yl)but-2-enoyl)piperidin-2-yl)imidazo[1,5-a]pyrazin-1-yl)-N-(4-propylpyridin-2-yl)benzamide]
≥ 1000 nM: all assays above

CC#CC(=O)N1CCCC[C@H]1c1nc(-c2ccc(C(=O)Nc3cc(CCC)ccn3)cc2)c2c(C)nccn12 [Example 22, (S)-4-(3-(1-but-2-ynoylpiperidin-2-yl)-8-methylimidazo[1,5-a]pyrazin-1-yl)-N-(4-propylpyridin-2-yl)benzamide]
≥ 1000 nM: all assays above

C=CC(=O)N1CCC[C@H]1c1nc(-c2ccc(C(=O)Nc3ccccn3)cc2)c2c(C)nccn12 [Example 19, (S)-4-(3-(1-acryloylpyrrolidin-2-yl)-8-methylimidazo[1,5-a]pyrazin-1-yl)-N-(pyridin-2-yl)benzamide]
≥ 1000 nM: all assays above

C=CC(=O)N[C@@H](C)c1nc(-c2ccc(C(=O)Nc3cc(CCC)ccn3)cc2)c2c(C)nccn12 [Example 23, (S)-4-(3-(1-acrylamidoethyl)-8-methylimidazo[1,5-a]pyrazin-1-yl)-N-(4-propylpyridin-2-yl)benzamide]
≥ 1000 nM: all assays above

CC#CC(=O)N(C)[C@@H](C)c1nc(-c2ccc(C(=O)Nc3cc(CCC)ccn3)cc2)c2c(C)nccn12 [Example 24, (S)-4-(8-methyl-3-(1-(N-methylbut-2-ynamido)ethyl)imidazo[1,5-a]pyrazin-1-yl)-N-(4-propylpyridin-2-yl)benzamide]
≥ 1000 nM: all assays above

CCCc1ccnc(NC(=O)c2ccc(-c3nc([C@H](C)NC(=O)/C=C/COC)n4ccnc(C)c34)cc2)c1 [Example 36, (S,E)-4-(3-(1-(4-methoxybut-2-enamido)ethyl)-8-methylimidazo[1,5-a]pyrazin-1-yl)-N-(4-propylpyridin-2-yl)benzamide]
≥ 1000 nM: all assays above

Cc1nccn2c([C@@H]3CCCN3C(=O)/C=C/CN3CCCC3)nc(-c3ccc(C(=O)Nc4ccccn4)cc3)c12 [Example 25, (S,E)-4-(8-methyl-3-(1-(4-(pyrrolidin-1-yl)but-2-enoyl)pyrrolidin-2-yl)imidazo[1,5-a]pyrazin-1-yl)-N-(pyridin-2-yl)benzamide]
≥ 1000 nM: all assays above

CCCc1ccnc(NC(=O)c2ccc(-c3nc([C@H](C)NC(=O)/C=C/CN(C)C)n4ccnc(C)c34)cc2)c1 [Example 28, (S,E)-4-(3-(1-(4-(dimethylamino)but-2-enamido)ethyl)-8-methylimidazo[1,5-a]pyrazin-1-yl)-N-(4-propylpyridin-2-yl)benzamide]
≥ 1000 nM: all assays above

CC#CC(=O)N1CCC[C@H]1c1nc(-c2ccc(C(=O)Nc3cc(C)ccn3)cc2)c2c(C)nccn12 [Example 15, (S)-4-(3-(1-but-2-ynoylpyrrolidin-2-yl)-8-methylimidazo[1,5-a]pyrazin-1-yl)-N-(4-methylpyridin-2-yl)benzamide]
≥ 1000 nM: all assays above

C=CC(=O)N1CCC[C@H]1c1nc(-c2ccc(C(=O)Nc3cc(C(F)(F)F)ccn3)cc2)c2c(C)nccn12 [Example 10, (S)-4-(3-(1-Acryloylpyrrolidin-2-yl)-8-methylimidazo[1,5-a]pyrazin-1-yl)-N-(4-(trifluoromethyl)pyridin-2-yl)benzamide]
≥ 1000 nM: all assays above
